Values of other authors in US11510960B2, “Biofilm disrupting composition for use on chronic wounds” (Whiteley Corporation Pty Ltd, priority 2016, dated 2022).

Tested on: P. aeruginosa biofilm from venous leg ulcers

gentamicin
reduction in concentration in relation to the control biofilm (biofilm 24 hours post-debridement, antibiotic treatment): nine-fold | average log reduction in bacteria after antibiotic treatment (mature (pre-study) biofilm, three patients with non-healing venous leg ulcers): 4 log
